Results published in patent US11052154B2, “Ras protein degradation inducing molecule and pharmaceutical composition” (Tokyo University of Science Foundation, priority 2016, dated 2021).

Experiments:
[1] = target: T1, G12D mutant K-Ras protein (Homo sapiens, UniProt P01116, G12D); assay: Degradation (knockdown) of G12D mutant K-Ras protein forcibly expressed in HeLa cells, FACS analysis; type: cell-based
T1 construct: expressed in transfected cells; host or cells: HeLa
Method: HeLa cells into which the plasmid had been introduced were seeded in a 24-well plate at a cell density of 4×10^4 cells/well, and then cultured under conditions of 37° C. and 5 vol % CO2 for 40 hours.
DMSO was used as a control.

SOS1 protein = target: T2, SOS1 protein (Homo sapiens, UniProt Q07889); assay: Amount of SOS1 protein in HeLa cells, Western blot analysis; type: cell-based; settings: 48 hours after addition, vs control (DMSO), FIG. 5
T2 construct: endogenous in cells; host or cells: HeLa
T2 sequence (Q07889 1-1333): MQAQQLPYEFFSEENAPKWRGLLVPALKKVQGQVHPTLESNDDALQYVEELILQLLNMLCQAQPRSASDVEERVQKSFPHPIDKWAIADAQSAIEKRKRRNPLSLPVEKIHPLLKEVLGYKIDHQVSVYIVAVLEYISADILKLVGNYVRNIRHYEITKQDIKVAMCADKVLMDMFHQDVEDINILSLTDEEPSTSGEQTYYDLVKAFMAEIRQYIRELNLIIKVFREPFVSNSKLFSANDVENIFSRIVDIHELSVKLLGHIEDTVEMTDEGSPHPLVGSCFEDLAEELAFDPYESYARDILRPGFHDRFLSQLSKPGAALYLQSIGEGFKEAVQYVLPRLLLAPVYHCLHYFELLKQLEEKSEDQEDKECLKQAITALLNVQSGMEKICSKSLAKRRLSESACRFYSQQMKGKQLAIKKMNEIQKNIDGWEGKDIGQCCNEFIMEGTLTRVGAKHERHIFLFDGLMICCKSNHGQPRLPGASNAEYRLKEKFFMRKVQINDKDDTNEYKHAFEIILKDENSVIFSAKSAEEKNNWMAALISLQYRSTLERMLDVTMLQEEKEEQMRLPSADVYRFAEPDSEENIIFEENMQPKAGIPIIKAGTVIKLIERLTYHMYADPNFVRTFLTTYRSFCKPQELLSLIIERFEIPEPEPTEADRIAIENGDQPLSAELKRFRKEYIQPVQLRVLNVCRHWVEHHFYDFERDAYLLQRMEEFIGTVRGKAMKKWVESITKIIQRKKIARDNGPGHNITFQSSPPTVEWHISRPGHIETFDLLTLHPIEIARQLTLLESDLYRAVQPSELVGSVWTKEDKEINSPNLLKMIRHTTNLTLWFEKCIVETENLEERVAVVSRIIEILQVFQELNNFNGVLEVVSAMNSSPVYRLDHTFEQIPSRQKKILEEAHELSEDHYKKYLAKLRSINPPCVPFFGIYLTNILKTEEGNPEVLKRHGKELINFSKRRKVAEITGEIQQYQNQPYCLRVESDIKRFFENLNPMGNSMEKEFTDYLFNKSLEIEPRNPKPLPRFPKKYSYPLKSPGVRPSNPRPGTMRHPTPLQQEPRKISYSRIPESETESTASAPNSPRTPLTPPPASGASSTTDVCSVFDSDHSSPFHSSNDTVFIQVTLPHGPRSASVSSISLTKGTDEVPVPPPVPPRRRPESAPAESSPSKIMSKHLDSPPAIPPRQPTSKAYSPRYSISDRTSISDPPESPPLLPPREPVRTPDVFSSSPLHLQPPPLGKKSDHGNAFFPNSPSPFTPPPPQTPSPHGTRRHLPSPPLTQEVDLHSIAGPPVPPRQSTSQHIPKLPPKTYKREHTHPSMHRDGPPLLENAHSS

SW1990 cells = assay: Anti-tumor effect in mice subcutaneously implanted with human pancreatic cancer cells (SW1990 cells); type: in vivo, mouse; settings: BALB/c nu/nu mice, SW1990 subcutaneous, oral 80 mg/kg once every 3 days, 7 doses, vs Vehicle; FIG. 9A
Method: In Example 10, TUS-007 was administered to mice subcutaneously implanted with human pancreatic cancer cells (SW1990 cells), and an anti-tumor effect was evaluated.
To the subcutis of T-cell deficient mice (BALB/cAJcl-nu/nu, 4 weeks old, female) (CLEA Japan, Inc.), 0.1 mL of cell suspension in which SW1990 cells were suspended in PBS so as to be 1×10^7 cells/mL was implanted using a 26-gauge injection needle (TERUMO CORPORATION).
Immediately before administration, TUS-007 was dissolved in DMSO, 0.5 mass % carboxymethyl cellulose (Code No. 039-01335, Wako Pure Chemical Industries, Ltd.) solution was added so that the concentration of DMSO became 2.5 vol %, followed by pulverization by ultrasonic treatment to prepare a suspension of TUS-007. When the tumors of mice with subcutaneously implanted SW1990 cells grew to a size of approximately 100 mm^3, the prepared TUS-007 suspension was orally administered by gavage with a gastric tube (Code No. 5202K, Fuchigami Kikai) at a dose of 80 mg/kg body weight once every 3 days for a total of 7 doses (n=6 to 9). As a control (Vehicle), 0.5 mass % carboxymethyl cellulose solution containing 2.5 vol % DMSO was administered in the same manner.
The tumor volume (mm^3) was calculated by measuring the tumor size using a caliper, and using the formula (minor axis diameter)^2×major axis diameter/2.

T1 sequence (P01116 1-188 isoform P01116-2 G12D): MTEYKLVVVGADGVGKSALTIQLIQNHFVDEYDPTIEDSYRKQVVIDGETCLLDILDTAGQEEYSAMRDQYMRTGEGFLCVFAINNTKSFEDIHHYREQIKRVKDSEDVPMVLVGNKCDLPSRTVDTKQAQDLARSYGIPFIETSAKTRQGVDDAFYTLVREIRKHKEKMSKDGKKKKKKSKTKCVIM

## CCC(C)[C@H](NC(=O)CCCCCCNC(=O)[C@H](CC(C)C)NC(=O)CNC(=O)c1cc(Cl)ccc1Cl)C(=O)Nc1ccc2[nH]c(Cc3c[nH]c4ccccc34)nc2c1 (stereo in doubt) [TUS-007]
[1]; HeLa cells, MLN2238 co-added, compared with TUS-007 alone, FIG. 3
  degradation of the G12D mutant K-Ras protein when both TUS-007 and MLN2238 were added: G12D mutant and G12V mutant K-Ras protein degradation was inhibited
[1]; HeLa cells, vs control (DMSO), FIG. 3
  degradation (knockdown) of the G12D mutant K-Ras protein (shift of GFP/DsRed ratio graph): degradation of the G12D mutant and the G12V mutant K-Ras protein was induced
[1]; from the results of FIGS. 1 and 3
  comparison of degradation induction among wild-type, G12D mutant and G12V mutant K-Ras protein: excellent in inducing the degradation of the G12D mutant K-Ras protein
SOS1 protein
  amount of the SOS1 protein (Western blot): the amount of the SOS1 protein was not reduced
SW1990 cells
  increase of the tumor volume: the increase of the tumor volume was significantly suppressed (p=0.004)
